The molecules below were run against GST-tagged-Wee1 kinase (Homo sapiens, UniProt P30291) (assay: Wee1 time-resolved fluorescence equilibrium binding assay (displacement of Oregon Green-labeled ATP-competitive kinase probe)).
Chain of GST-tagged-Wee1 kinase (P30291 whole entry): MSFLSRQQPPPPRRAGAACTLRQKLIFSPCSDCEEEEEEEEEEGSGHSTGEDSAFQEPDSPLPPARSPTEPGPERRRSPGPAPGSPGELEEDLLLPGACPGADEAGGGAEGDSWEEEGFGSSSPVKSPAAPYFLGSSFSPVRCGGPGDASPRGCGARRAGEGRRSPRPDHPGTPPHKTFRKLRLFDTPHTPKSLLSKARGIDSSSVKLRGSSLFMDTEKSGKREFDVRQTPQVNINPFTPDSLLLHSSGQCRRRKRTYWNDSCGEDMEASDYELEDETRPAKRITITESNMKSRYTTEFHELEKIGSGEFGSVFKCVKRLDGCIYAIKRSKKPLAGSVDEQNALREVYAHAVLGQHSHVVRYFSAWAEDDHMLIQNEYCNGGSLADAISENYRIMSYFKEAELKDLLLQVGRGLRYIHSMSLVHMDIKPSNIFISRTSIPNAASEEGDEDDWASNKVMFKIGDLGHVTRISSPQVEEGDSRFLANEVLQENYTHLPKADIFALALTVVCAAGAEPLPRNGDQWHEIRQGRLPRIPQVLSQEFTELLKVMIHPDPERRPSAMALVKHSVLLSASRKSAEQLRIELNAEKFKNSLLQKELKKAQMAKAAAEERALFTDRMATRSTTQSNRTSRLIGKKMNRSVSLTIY
Method: Wee1 kinase was assayed using a time-resolved fluorescence equilibrium binding assay monitoring displacement of a rapidly reversible Oregon Green-labeled ATP-competitive kinase probe (N-(2-(2-(2-(4-(4-(5-chloro-4-(2-(1-hydroxycyclobutyl)thiazol-5-yl)-1H-pyrrolo[2,3-b]pyridin-2-yl)phenyl)piperazin-1-yl)ethoxy)ethoxy)ethyl)-2′,7′-difluoro-3′,6′-dihydroxy-3-oxo-3H-spiro[isobenzofuran-1,9′-xanthene]-5-carboxamide) by competitive Wee1 inhibitors.
A Ki of 2.3 nM was found for `Cc1nn(-c2c(Cl)cccc2Cl)c(=O)c2cnc(Nc3cc4c(cc3Cl)CNCC4)nc12` [Example 472, 2-[(7-chloro-1,2,3,4-tetrahydroisoquinolin-6-yl)amino]-6-(2,6-dichlorophenyl)-8-methylpyrimido[4,5-d]pyridazin-5(6H)-one] in this work.
A Ki of 0.38 nM was found for `O=c1c2cnc(Nc3ccc4c(c3)CCNC4)nc2c(C(F)F)nn1-c1c(Cl)cccc1Cl` [Example 473, 6-(2,6-dichlorophenyl)-8-(difluoromethyl)-2-(1,2,3,4-tetrahydroisoquinolin-6-ylamino)pyrimido[4,5-d]pyridazin-5(6H)-one] in this work.
A Ki of 0.24 nM was found for `CN1CCc2ccc(Nc3ncc4c(=O)n(-c5c(Cl)cccc5Cl)nc(C(F)F)c4n3)cc2C1` [Example 475, 6-(2,6-dichlorophenyl)-8-(difluoromethyl)-2-[(2-methyl-1,2,3,4-tetrahydroisoquinolin-7-yl)amino]pyrimido[4,5-d]pyridazin-5(6H)-one] in this work.
A Ki of 0.17 nM was found for `CC(=O)N1CCc2cc(Nc3ncc4c(=O)n(-c5c(Cl)cccc5Cl)nc(C(F)F)c4n3)ccc2C1` [Example 476, 2-[(2-acetyl-1,2,3,4-tetrahydroisoquinolin-6-yl)amino]-6-(2,6-dichlorophenyl)-8-(difluoromethyl)pyrimido[4,5-d]pyridazin-5(6H)-one] in this work.
A Ki of 0.67 nM was found for `CC(=O)N1CCc2ccc(Nc3ncc4c(=O)n(-c5c(Cl)cccc5Cl)nc(C(F)F)c4n3)cc2C1` [Example 477, 2-[(2-acetyl-1,2,3,4-tetrahydroisoquinolin-7-yl)amino]-6-(2,6-dichlorophenyl)-8-(difluoromethyl)pyrimido[4,5-d]pyridazin-5(6H)-one] in this work.
A Ki of 0.17 nM was found for `CC1(C)CNCc2cc(Nc3ncc4c(=O)n(-c5c(Cl)cccc5Cl)nc(C(F)F)c4n3)ccc21` [Example 478] in this work.
A Ki of 0.29 nM was found for `O=c1c2cnc(Nc3ccc(C4CCCNC4)cc3)nc2c(C(F)F)nn1-c1c(Cl)cccc1Cl` (stereo not shown) [Example 479, 6-(2,6-dichlorophenyl)-8-(difluoromethyl)-2-{[4-(piperidin-3-yl)phenyl]amino}pyrimido[4,5-d]pyridazin-5(6H)-one] in this work.
A Ki of 1.3 nM was found for `Cc1nn(-c2c(Cl)cccc2Cl)c(=O)c2cnc(Nc3cc4c(cc3F)CNCC4)nc12` [Example 480, 6-(2,6-dichlorophenyl)-2-[(7-fluoro-1,2,3,4-tetrahydroisoquinolin-6-yl)amino]-8-methylpyrimido[4,5-d]pyridazin-5(6H)-one] in this work.
A Ki of 0.73 nM was found for `Cc1nn(-c2ccccc2Cl)c(=O)c2cnc(Nc3ccc4c(c3)CCNC4)nc12` [Example 481, 6-(2-chlorophenyl)-8-methyl-2-(1,2,3,4-tetrahydroisoquinolin-6-ylamino)pyrimido[4,5-d]pyridazin-5(6H)-one] in this work.
A Ki of 0.31 nM was found for `Cc1nn(-c2ccccc2Cl)c(=O)c2cnc(Nc3ccc4c(c3)CNCC4(C)C)nc12` [Example 482, 6-(2-chlorophenyl)-2-[(4,4-dimethyl-1,2,3,4-tetrahydroisoquinolin-7-yl)amino]-8-methylpyrimido[4,5-d]pyridazin-5(6H)-one] in this work.
A Ki of 0.55 nM was found for `Cc1nn(-c2ccccc2Cl)c(=O)c2cnc(Nc3ccc4c(c3)CN(C)CC4(C)C)nc12` [Example 483, 6-(2-chlorophenyl)-8-methyl-2-[(2,4,4-trimethyl-1,2,3,4-tetrahydroisoquinolin-7-yl)amino]pyrimido[4,5-d]pyridazin-5(6H)-one] in this work.
A Ki of 0.17 nM was found for `Cc1nn(-c2ccccc2Cl)c(=O)c2cnc(Nc3ccc4c(c3)CC(N(C)C)C4)nc12` (stereo not shown) [Example 484, 6-(2-chlorophenyl)-2-{[2-(dimethylamino)-2,3-dihydro-1H-inden-5-yl]amino}-8-methylpyrimido[4,5-d]pyridazin-5(6H)-one] in this work.
A Ki of 0.15 nM was found for `CN1Cc2cc(Nc3ncc4c(=O)n(-c5c(Cl)cccc5Cl)nc(C(F)F)c4n3)ccc2C1(C)C` [Example 485, 6-(2,6-dichlorophenyl)-8-(difluoromethyl)-2-[(1,1,2-trimethyl-2,3-dihydro-1H-isoindol-5-yl)amino]pyrimido[4,5-d]pyridazin-5(6H)-one] in this work.
A Ki of 0.13 nM was found for `CN1CCCC(c2ccc(Nc3ncc4c(=O)n(-c5c(Cl)cccc5Cl)nc(C(F)F)c4n3)cc2)C1` (stereo not shown) [Example 486, 6-(2,6-dichlorophenyl)-8-(difluoromethyl)-2-{[4-(1-methylpiperidin-3-yl)phenyl]amino}pyrimido[4,5-d]pyridazin-5(6H)-one] in this work.
A Ki of 0.27 nM was found for `Cc1nn(-c2c(Cl)cncc2Cl)c(=O)c2cnc(Nc3ccc4c(c3)CN(C)CC43CC3)nc12` [Example 487, 6-(3,5-dichloropyridin-4-yl)-8-methyl-2-[(2′-methyl-2′,3′-dihydro-1′H-spiro[cyclopropane-1,4′-isoquinolin]-7′-yl)amino]pyrimido[4,5-d]pyridazin-5(6H)-one] in this work.
A Ki of 0.29 nM was found for `Cc1nn(-c2c(Cl)cncc2Cl)c(=O)c2cnc(Nc3ccc4c(c3)CN(C)C4(C)C)nc12` [Example 488, 6-(3,5-dichloropyridin-4-yl)-8-methyl-2-[(1,1,2-trimethyl-2,3-dihydro-1H-isoindol-5-yl)amino]pyrimido[4,5-d]pyridazin-5(6H)-one] in this work.
A Ki of 0.089 nM was found for `Cc1nn(-c2c(Cl)cccc2Cl)c(=O)c2cnc(Nc3ccc4c(c3)CNC4(C)C)nc12` [Example 489, 6-(2,6-dichlorophenyl)-2-[(1,1-dimethyl-2,3-dihydro-1H-isoindol-5-yl)amino]-8-methylpyrimido[4,5-d]pyridazin-5(6H)-one] in this work.
A Ki of 0.11 nM was found for `Cc1nn(-c2c(Cl)cccc2Cl)c(=O)c2cnc(Nc3ccc4c(c3)CN(C)CC4)nc12` [Example 490, 6-(2,6-dichlorophenyl)-8-methyl-2-[(2-methyl-1,2,3,4-tetrahydroisoquinolin-7-yl)amino]pyrimido[4,5-d]pyridazin-5(6H)-one] in this work.
A Ki of 0.26 nM was found for `Cc1nn(-c2c(Cl)cccc2Cl)c(=O)c2cnc(Nc3ccc4c(c3)CN(C)C4)nc12` [Example 491, 6-(2,6-dichlorophenyl)-8-methyl-2-[(2-methyl-2,3-dihydro-1H-isoindol-5-yl)amino]pyrimido[4,5-d]pyridazin-5(6H)-one] in this work.
A Ki of 0.56 nM was found for `CCc1nn(-c2c(Cl)cccc2Cl)c(=O)c2cnc(Nc3ccc4c(c3)CCN(C)C4)nc12` [Example 492, 6-(2,6-dichlorophenyl)-8-ethyl-2-[(2-methyl-1,2,3,4-tetrahydroisoquinolin-6-yl)amino]pyrimido[4,5-d]pyridazin-5(6H)-one] in this work.
A Ki of 0.86 nM was found for `CCc1nn(-c2c(Cl)cccc2Cl)c(=O)c2cnc(Nc3ccc4c(c3)CN(C)CC4)nc12` [Example 493, 6-(2,6-dichlorophenyl)-8-ethyl-2-[(2-methyl-1,2,3,4-tetrahydroisoquinolin-7-yl)amino]pyrimido[4,5-d]pyridazin-5(6H)-one] in this work.
A Ki of 0.31 nM was found for `CCc1nn(-c2c(Cl)cccc2Cl)c(=O)c2cnc(Nc3ccc4c(c3)CN(C)C4)nc12` [Example 494, 6-(2,6-dichlorophenyl)-8-ethyl-2-[(2-methyl-2,3-dihydro-1H-isoindol-5-yl)amino]pyrimido[4,5-d]pyridazin-5(6H)-one] in this work.
A Ki of 0.16 nM was found for `Cc1cccc(Cl)c1-n1nc(C)c2nc(Nc3ccc4c(c3)CNCC4)ncc2c1=O` [Example 495, 6-(2-chloro-6-methylphenyl)-8-methyl-2-(1,2,3,4-tetrahydroisoquinolin-7-ylamino)pyrimido[4,5-d]pyridazin-5(6H)-one] in this work.
A Ki of 0.34 nM was found for `Cc1cccc(Cl)c1-n1nc(C)c2nc(Nc3ccc4c(c3)CCNC4)ncc2c1=O` [Example 496, 6-(2-chloro-6-methylphenyl)-8-methyl-2-(1,2,3,4-tetrahydroisoquinolin-6-ylamino)pyrimido[4,5-d]pyridazin-5(6H)-one] in this work.
A Ki of 0.26 nM was found for `Cc1cccc(Cl)c1-n1nc(C)c2nc(Nc3ccc4c(c3)CNCC4(C)C)ncc2c1=O` [Example 497, 6-(2-chloro-6-methylphenyl)-2-[(4,4-dimethyl-1,2,3,4-tetrahydroisoquinolin-7-yl)amino]-8-methylpyrimido[4,5-d]pyridazin-5(6H)-one] in this work.
A Ki of 0.23 nM was found for `Cc1cccc(Cl)c1-n1nc(C)c2nc(Nc3ccc4c(c3)CN(C)CC4(C)C)ncc2c1=O` [Example 498, 6-(2-chloro-6-methylphenyl)-8-methyl-2-[(2,4,4-trimethyl-1,2,3,4-tetrahydroisoquinolin-7-yl)amino]pyrimido[4,5-d]pyridazin-5(6H)-one] in this work.
A Ki of 0.21 nM was found for `Cc1cccc(Cl)c1-n1nc(C)c2nc(Nc3ccc4c(c3)CN(CCO)CC4)ncc2c1=O` [Example 499, 6-(2-chloro-6-methylphenyl)-2-{[2-(2-hydroxyethyl)-1,2,3,4-tetrahydroisoquinolin-7-yl]amino}-8-methylpyrimido[4,5-d]pyridazin-5(6H)-one] in this work.
A Ki of 0.51 nM was found for `Cc1cccc(Cl)c1-n1nc(C)c2nc(Nc3ccc(N4CCN(CCCN(C)C)CC4)cc3)ncc2c1=O` [Example 500, 6-(2-chloro-6-methylphenyl)-2-[(4-{4-[3-(dimethylamino)propyl]piperazin-1-yl}phenyl)amino]-8-methylpyrimido[4,5-d]pyridazin-5(6H)-one] in this work.
A Ki of 0.32 nM was found for `Cc1cccc(Cl)c1-n1nc(C)c2nc(Nc3ccc(NC4CCN(C)CC4)cc3)ncc2c1=O` [Example 501, 6-(2-chloro-6-methylphenyl)-8-methyl-2-({4-[(1-methylpiperidin-4-yl)amino]phenyl}amino)pyrimido[4,5-d]pyridazin-5(6H)-one] in this work.
A Ki of 0.36 nM was found for `Cc1cccc(Cl)c1-n1nc(C)c2nc(Nc3ccc(OC4CCN(C)CC4)cc3)ncc2c1=O` [Example 502, 6-(2-chloro-6-methylphenyl)-8-methyl-2-({4-[(1-methylpiperidin-4-yl)oxy]phenyl}amino)pyrimido[4,5-d]pyridazin-5(6H)-one] in this work.
A Ki of 0.1 nM was found for `Cc1nn(-c2c(Cl)cccc2Cl)c(=O)c2cnc(Nc3ccc(OC4CCN(C)CC4)cc3)nc12` [Example 503, 6-(2,6-dichlorophenyl)-8-methyl-2-({4-[(1-methylpiperidin-4-yl)oxy]phenyl}amino)pyrimido[4,5-d]pyridazin-5(6H)-one] in this work.
